Experimental data published in patent publication US4699914A, “Imidazole group containing 2(1H)-pyridones and method for treating heart insufficiencies in humans” (A. Nattermann & Cie GmbH, priority 1984, dated 1987).

Experiments:
Anaesthetized dog = test: Evaluation of the cardiotonic activity in vivo, anaesthetized dog; set-up: species or system dog (adult mongrel dogs of either sex); Blood Pressure: unit not given here; conditions: intravenous
Description: The effects of increasing doses of the drugs were measured upon intravenous administration to anaesthetized dogs. As parameters myocardial contractility, heart rate and arterial blood pressure were registered.
Adult mongrel dogs of either sex received a premedication of morphinhydrochloride (1.0 mg/kg s.c.). Thirty minutes later anaesthesia was induced by chloralose/urethane. The animals were heparinised with 500 I.U. heparin/kg (i.v.) as an initial dosage followed by doses of 250 I.U./kg given every 4 hours.
The trachea was intubated but the animals were allowed to breathe spontaneously. The test solutions were injected via a cannula in the vena cephalica antebrachii dextra. Arterial blood pressure was measured by a cannula in the femoral artery. In order to enable the registration of the myocardial contractility a Millar catheter tip pressure transducer was inserted into the left ventricle by way of the left carotid artery. Arterial blood pressure and left ventricular blood pressure were recorded continuously. Heart rate is triggered from the peak of the blood pressure signal.
From the left ventricular blood pressure the first derivative was calculated by a differentiator amplifier to give left ventricular dp/dt which was recorded as well. The compounds were solved in tetrahydrofurfurylalcohol polyethylene glycolether when necessary with additional heating.
Each dose of the test compounds was administered in a volume of 0.1 ml/kg, the duration of the injection was 1 minute.
The results with the tested compound representing the subject of invention 3,6-Dimethyl-5-[4-(1-imidazolyl)-2-thienyl]-2(1H)-pyridone-hydrochloride=Ain comparison with reference substance 4,5-Dihydro-6-[4-(1-imidazolyl)-phenyl]-3(2H)-pyridazinone ((CI 914, Drugs of the Future 9 (1984), 256)=B are given in the table 1.

human platelets = test: Inhibition of the collagen-induced platelets aggregation in vitro (method of Born); format: cell-based; conditions: read-out: IC50 (concentration which causes an aggregation inhibition of 50%), platelet rich human plasma
Description: The inhibition of the collagen-induced platelets aggregation in vitro was carried out by using the method of Born (Nature, 194, 927-929 (1962)) in using a platelet rich human plasma with the substances of the present invention 3,6-dimethyl-5-[-5-(1-imidazolyl)-2-thienyl]-2(1H)-pyridone-hydrochloride=C, 3,6-dimethyl-5-[4-(1-imidazolyl)phenyl]-2(1H)-pyridone-hydrochloride=D, 5-[4-(1-imidazolyl)-2-thienyl]-6-methyl-2(1H)-pyridone-hydrochloride=E in comparison with the reference substance acetylsalicyclic acid=F.

Water solubility = format: physicochemical; conditions: hydrochloride, in words

Compound	Blood Pressure (Anaesthetized dog; 0.01 mg/kg)	Contractility (Anaesthetized dog; 0.01 mg/kg)	Heart Rate (Anaesthetized dog; 0.01 mg/kg)	Blood Pressure (Anaesthetized dog; 0.0316 mg/kg)	Contractility (Anaesthetized dog; 0.0316 mg/kg)	Heart Rate (Anaesthetized dog; 0.0316 mg/kg)	Blood Pressure (Anaesthetized dog; 0.1 mg/kg)	Contractility (Anaesthetized dog; 0.1 mg/kg)	Heart Rate (Anaesthetized dog; 0.1 mg/kg)	IC50 (human platelets)	other results
Cc1[nH]c(=O)c(C)cc1-c1cc(-n2ccnc2)cs1.Cl [A, 3,6-Dimethyl-5-[4-(1-imidazolyl)-2-thienyl]-2(1H)-pyridone-hydrochloride]	-0.2	+32.4	+5.9	-4.1	+83.3	+20.0	-17.4	+185.5	+32.1	–	–
O=C1CCC(c2ccc(-n3ccnc3)cc2)=NN1 [B, 4,5-Dihydro-6-[4-(1-imidazolyl)-phenyl]-3(2H)-pyridazinone, reference compound]	-1.3	+8.7	+3.6	-0.7	+25.5	+18.9	-10.4	+64.8	+15.4	–	–
Cc1[nH]c(=O)c(C)cc1-c1ccc(-n2ccnc2)s1 [C]	–	–	–	–	–	–	–	–	–	440 nM	–
Cc1[nH]c(=O)c(C)cc1-c1ccc(-n2ccnc2)cc1 [D]	–	–	–	–	–	–	–	–	–	370 nM	–
Cc1[nH]c(=O)ccc1-c1cc(-n2ccnc2)cs1 [E]	–	–	–	–	–	–	–	–	–	540 nM	–
CC1=C(c2ccc(-n3ccnc3)cc2)CCC(=O)N1.Cl [Example 22, 3,4-dihydro-5-[4-(1-imidazolyl)-phenyl]-6-methyl-2(1H)-pyridone-hydrochloride]	–	–	–	–	–	–	–	–	–	–	water solubility (Water solubility): water soluble
